Our source for the Ki and IC50 values is patent publication US12247032B2, “Substituted pyrazolo[1,5-a]pyrimidines as inhibitors of JAK kinases” (Genentech, Inc., priority 2019, dated 2025).

Structures are written as SMILES.

Experiment [1] addresses T1, Recombinant human JAK2 kinase domain protein (Residues 812-1132) (Homo sapiens, UniProt O60674).
T1 construct: human JAK2 kinase domain protein (Residues 812-1132); made in house; host or cells: insect cells
In words: JAK2 biochemical assay (microfluidic mobility shift, peptide phosphorylation). The note with it: 25 μM ATP, 0.2 nM total JAK2; Ki calculated from Ki app (tight-binding, competitive); read-out: Biochem JAK2 Ki. In short, it runs like this: (§1)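 Insect-cell-expressed human JAK1 (1 nM, residues 854-1154) or JAK2 (0.2 nM, residues 812-1132) phosphorylating 1.5 μM 5-FAM peptide Y-1B with 25 μM ATP, pH 7.2 HEPES, 30 min at 22-23 °C; twelve concentrations up to 1000 nM in duplicate. Mobility-shift % conversion fitted to tight-binding quadratic for Ki^app.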

The test system of experiment [2] is JAK1 (IL-13-stimulated STAT6 phosphorylation in BEAS-2B cells). Description: P-STAT6 BEAS-2B+IL-13 cell assay. The format is cell-based, human. As to conditions: Homo sapiens, BEAS-2B, 1 h, 1 hour compound, IL-13 15 minutes, IC50 by four-parameter fit, read-out: Cellular JAK1 PSTAT6 BEAS2B + IL13. In outline: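 BEAS-2B human bronchial epithelial cells preincubated 1 h at 37 °C with compound, then stimulated with human recombinant IL-13 for 15 min. Phospho-STAT6 (Tyr641) in lysates measured by MSD electrochemiluminescence immunoassay; IC50 from a four-parameter logistic fit of percent of control.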

Experiment [3] concerns the target T2, recombinant human JAK1 kinase domain protein (Residues 854-1154) (Homo sapiens, UniProt P23458).
T2 construct: human JAK1 kinase domain protein (Residues 854-1154); purchased Proteros Biostructures GmbH (Martinsried, Germany); host or cells: insect cells
Description: JAK1 biochemical assay (microfluidic mobility shift, peptide phosphorylation). As to conditions: 25 μM ATP, 1 nM total JAK1; Ki calculated from Ki app (tight-binding, competitive); read-out: Biochem JAK1 Ki. In short, it runs like this: as §1

T1 sequence (O60674 812-1132): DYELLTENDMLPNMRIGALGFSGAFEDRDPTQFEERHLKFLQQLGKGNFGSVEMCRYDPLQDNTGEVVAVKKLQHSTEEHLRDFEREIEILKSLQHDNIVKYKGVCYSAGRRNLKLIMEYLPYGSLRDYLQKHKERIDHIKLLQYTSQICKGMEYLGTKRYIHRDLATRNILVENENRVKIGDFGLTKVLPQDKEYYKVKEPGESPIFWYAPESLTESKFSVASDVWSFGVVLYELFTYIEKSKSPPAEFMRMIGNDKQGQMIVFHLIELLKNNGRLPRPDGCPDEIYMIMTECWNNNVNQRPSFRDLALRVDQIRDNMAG
T2 sequence (P23458 854-1154): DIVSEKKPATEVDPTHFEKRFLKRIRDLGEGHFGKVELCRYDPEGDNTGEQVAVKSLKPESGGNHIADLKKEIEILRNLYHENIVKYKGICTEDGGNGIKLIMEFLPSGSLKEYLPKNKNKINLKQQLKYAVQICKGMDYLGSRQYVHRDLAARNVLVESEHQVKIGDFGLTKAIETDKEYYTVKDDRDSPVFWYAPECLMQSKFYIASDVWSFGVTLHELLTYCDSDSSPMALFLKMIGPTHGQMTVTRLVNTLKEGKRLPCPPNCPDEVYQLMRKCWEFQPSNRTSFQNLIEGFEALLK

In the case of `CN(CCN1CC(n2nnc(Cn3cc(NC(=O)c4cnn5cccnc45)c(-c4cc(OC(F)F)ccc4OC(F)F)n3)n2)C1)C(=O)OC(C)(C)C` [Example 31, tert-butyl N-[2-[3-[5-[[3-[2,5-bis(difluoromethoxy)phenyl]-4-(pyrazolo[1,5-a]pyrimidine-3-carbonylamino)pyrazol-1-yl]methyl]tetrazol-2-yl]azetidin-1-yl]ethyl]-N-methyl-carbamate], the Ki in experiment [1] is 0.25 nM; in experiment [3] it was 0.34 nM. Besides, in experiment [2], the IC50 turned out to be 22 nM.

With `CN(C)CCN1CC(n2nnc(Cn3cc(NC(=O)c4cnn5cccnc45)c(-c4cc(Cl)ccc4OC(F)F)n3)n2)C1` [Example 37, N-[3-[5-chloro-2-(difluoromethoxy)phenyl]-1-[[2-[1-[2-(dimethylamino)ethyl]azetidin-3-yl]tetrazol-5-yl]methyl]pyrazol-4-yl]pyrazolo[1,5-a]pyrimidine-3-carboxamide], the Ki in experiment [1] was 0.36 nM; in experiment [3], 0.48 nM. Further, in experiment [2], the IC50 was 16 nM.

Regarding `CN1CCC(N2CC(n3nnc(Cn4cc(NC(=O)c5cnn6cccnc56)c(-c5cc(OC(F)F)ccc5OC(F)F)n4)n3)C2)CC1` [Example 38, N-[3-[2,5-bis(difluoromethoxy)phenyl]-1-[[2-[1-(1-methyl-4-piperidyl)azetidin-3-yl]tetrazol-5-yl]methyl]pyrazol-4-yl]pyrazolo[1,5-a]pyrimidine-3-carboxamide], the Ki in experiment [1] was 0.44 nM; in experiment [3] it was 0.48 nM. In experiment [2], the IC50 is 18 nM.

Take `CSc1ccc(OC(F)F)c(-c2nn(Cc3nnn(C4CN(CCCN(C)C)C4)n3)cc2NC(=O)c2cnn3cccnc23)c1` [Example 58, N-[3-[2-(difluoromethoxy)-5-methylsulfanyl-phenyl]-1-[[2-[1-[3-(dimethylamino)propyl]azetidin-3-yl]tetrazol-5-yl]methyl]pyrazol-4-yl]pyrazolo[1,5-a]pyrimidine-3-carboxamide]: the Ki in experiment [1] was 0.38 nM; in experiment [3] it was 0.41 nM. In addition, in experiment [2], the IC50 is 57 nM.

For `CN(C)CCN1CCC(n2nnc(Cn3cc(NC(=O)c4cnn5cccnc45)c(-c4cc(OC(F)F)ccc4OC(F)F)n3)n2)CC1` [Example 61, N-[3-[2,5-bis(difluoromethoxy)phenyl]-1-[[2-[1-[2-(dimethylamino)ethyl]-4-piperidyl]tetrazol-5-yl]methyl]pyrazol-4-yl]pyrazolo[1,5-a]pyrimidine-3-carboxamide], the Ki is 0.52 nM in experiment [1] and 0.63 nM in experiment [3]. Also, in experiment [2], the IC50 was 32 nM.

On to `CN(C)[C@H]1C[C@H](N2CC(n3nnc(Cn4cc(NC(=O)c5cnn6cccnc56)c(-c5cc(OC(F)F)ccc5OC(F)F)n4)n3)C2)C1` [Example 70, N-[3-[2,5-bis(difluoromethoxy)phenyl]-1-[[2-[1-[3-(dimethylamino)cyclobutyl]azetidin-3-yl]tetrazol-5-yl]methyl]pyrazol-4-yl]pyrazolo[1,5-a]pyrimidine-3-carboxamide], for which the Ki in experiment [1] was 0.54 nM; in experiment [3], 0.64 nM. Besides, in experiment [2], the IC50 stood at 27 nM.

In the case of `CN1CC(N2CC(n3nnc(Cn4cc(NC(=O)c5cnn6cccnc56)c(-c5cc(OC(F)F)ccc5OC(F)F)n4)n3)C2)C1` [Example 78, N-[3-[2,5-bis(difluoromethoxy)phenyl]-1-[[2-[1-(1-methylazetidin-3-yl)azetidin-3-yl]tetrazol-5-yl]methyl]pyrazol-4-yl]pyrazolo[1,5-a]pyrimidine-3-carboxamide; formic acid], the Ki in experiment [1] is 0.41 nM; in experiment [3] it was 0.44 nM. The IC50 in experiment [2] is 40 nM.
